The target of experiment [1] is T1, human LXRα ligand binding domain with co-repressors NCoR and SMRT (Homo sapiens, UniProt Q13133).
T1 construct: expressed in transfected cells; host or cells: CV-1 cells
T1 sequence (Q13133 164-447): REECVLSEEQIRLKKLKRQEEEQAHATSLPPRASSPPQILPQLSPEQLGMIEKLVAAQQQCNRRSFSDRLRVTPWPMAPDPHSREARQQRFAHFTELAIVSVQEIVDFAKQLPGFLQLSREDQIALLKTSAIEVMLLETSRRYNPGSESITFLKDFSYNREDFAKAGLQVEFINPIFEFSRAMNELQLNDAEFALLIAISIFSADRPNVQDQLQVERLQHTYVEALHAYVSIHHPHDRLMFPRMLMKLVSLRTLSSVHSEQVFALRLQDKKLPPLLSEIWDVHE
In words: GAL4 two-hybrid co-repressor interaction in CV-1 cells, LXRα. Format: cell-based. The note with it: 1 μM overnight, luciferase normalized to β-gal. As to the method: (§1) FIG. 6. […] Two-hybrid analysis was performed by transiently transfecting CV-1 cells with a Gal4-luciferase reporter, Gal4-fusions of the receptor interacting domains of NcoR and SMRT, VP16 fusion of the ligand binding domains of LXRα and LXRβ and a β-gal expression vector. Cells were transfected with FUGENE transfection reagent and incubated with vehicle or 1 μM T0901317 overnight. The cells were then lysed and analyzed for β-gal and luciferase activity. The data is presented as luciferase activity normalized to β-gal activity.
(§2) GAL4 two-hybrid experiments. CV-1 cells were transfected using FuGene6 (Roche Applied Science, Indianapolis, Ind.) per manufacturer's instructions in 96 well plates with a total of 65 ng of DNA per well, consisting of 20 ng β-gal reporter, 15 ng GAL4-UAS4xRE (SEQ. ID. No. 28), 15 ng VP16-LXR-LBD, and 15 ng GAL4-human silencing mediator of retinoid and thyroid transcription (SMRT) receptor interacting domain 1 and 2 (ID1+ID2) or human nuclear receptor corepressor 1 (NCoR) ID1+ID2.

In experiment [2] the test system is ABCA1. In words: ABCA1 mRNA in mouse embryonic fibroblasts in culture. Format: cell-based. Conditions: MEFs in culture, 1 μM, 18 hrs; LXR dependent. Here is the method: (§3) FIG. 5. LXR mediated repression of ABCA1 is tissue specific. To measure the LXR dependent regulation of ABCA1 in different tissues wild type and LXRαβ−/− mice were dosed with 10 mg/kg T0901317 for 7 days by oral gavage. After 7 days the animals were sacrificed and intestinal mucosa, quadriceps, and livers were harvested. Mouse embryonic fibroblasts (MEFs) were isolated from embryos harvested at embryonic day 14. MEFs were plated in DMEM+10% FBS and treated with either vehicle or 1 μM T0901317 for 18 hrs. RNA was isolated and RT-PCR was used to quantitate the levels of ABCA1 and cyclophilin in FIG. 5A, intestinal mucosa, FIG. 5B, liver, FIG. 5C, MEFs and FIG. 5D, quadricep. […] RNA isolation and analysis of gene expression by quantitative RT-PCR. […] Quantitative PCR of reverse transcriptase reactions was carried out with 1.25 units Taq polymerase (Life Technologies), 1× Taq buffer, 3 mM MgCl2, 200 uM dNTPs, 400 nM target specific forward and reverse primers and 100 nM target specific fluorogenic probe. […] Levels of cyclophilin were measured in all in vivo samples and the results are presented as number of target transcripts per cyclophilin transcript. […] ABCA1 levels were also measured in isolated mouse embryonic fibroblasts treated with T091317 in culture. LXR agonist treatment increases expression of ABCA1 mRNA in all of the tissues analyzed, in an LXR dependent manner. […]

In experiment [3] the test system is ABCA1. Description: ABCA1 mRNA in tissues of mice dosed by oral gavage. The note with it: 10 mg/kg daily for 7 days, intestinal mucosa, liver, quadriceps, LXR dependent. The format is in vivo, mouse. As to the method:
as §3

Experiment [4] addresses T2, human LXRβ ligand binding domain with co-repressors NCoR and SMRT (Homo sapiens, UniProt P55055, DUP175-175).
T2 construct: expressed in transfected cells; host or cells: CV-1 cells
T2 sequence (P55055 with tags, fused parts or gaps DUP175-175): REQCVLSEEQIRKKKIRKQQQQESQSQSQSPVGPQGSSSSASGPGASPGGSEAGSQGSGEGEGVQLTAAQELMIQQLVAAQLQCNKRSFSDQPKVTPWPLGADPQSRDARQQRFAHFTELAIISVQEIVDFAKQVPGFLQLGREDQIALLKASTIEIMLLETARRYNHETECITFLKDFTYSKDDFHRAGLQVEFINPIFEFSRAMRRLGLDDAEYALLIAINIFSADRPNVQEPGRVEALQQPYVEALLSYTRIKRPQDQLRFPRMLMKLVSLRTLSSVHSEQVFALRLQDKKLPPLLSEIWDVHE
Description: GAL4 two-hybrid co-repressor interaction in CV-1 cells, LXRβ. Conditions: 1 μM overnight, luciferase normalized to β-gal. The format is cell-based. As to the method: as §1, §2

Experiment [5] relates to ABCA1. In words: ABCA1 mRNA (RT-PCR) and protein (western blot) in peritoneal macrophage. Format: cell-based, mouse. Conditions: 1 μM, 18 hrs. An excerpt:
FIG. 2. LXR dependent activation and repression of ABCA1. Thyoglycolate induced peritoneal macrophage were isolated from wild type and LXRαβ knockout mice. […] FIG. 2A. Following induction mRNA was isolated and RT-PCR was used to quantitate the levels of ABCA1 and the cyclophilin. ABCA1 levels were normalized to cyclophilin levels and the results are presented as fold induction above wild type macrophage treated with vehicle. FIG. 2B. For western blot analysis, whole cells extracts were isolated, run on an SDS-PAGE and probed with an antibody specific for ABCA1. RNA isolation and analysis of gene expression by quantitative RT-PCR. Total RNA from mouse tissues and cells was isolated using RNeasy kits (QIAGEN Inc.) according to the supplier's total RNA isolation procedure. Real time PCR was performed using a Perkin-Elmer/ABI 7700 Prism. […] Quantitative PCR of reverse transcriptase reactions was carried out with 1.25 units Taq polymerase (Life Technologies), 1× Taq buffer, 3 mM MgCl2, 200 uM dNTPs, 400 nM target specific forward and reverse primers and 100 nM target specific fluorogenic probe. […] Levels of cyclophilin were measured in all in vivo samples and the results are presented as number of target transcripts per cyclophilin transcript. […] RT-PCR was used to quantitate the levels of ABCA1 and the cyclophilin following induction of mRNA. […]

Experiment [6] deals with T3, GAL4-human silencing mediator of retinoid and thyroid transcription (SMRT) receptor interacting domain 1 and … (yeast; human).
T3 construct: also called GAL4-SMRT ID1+ID2
T3 chain: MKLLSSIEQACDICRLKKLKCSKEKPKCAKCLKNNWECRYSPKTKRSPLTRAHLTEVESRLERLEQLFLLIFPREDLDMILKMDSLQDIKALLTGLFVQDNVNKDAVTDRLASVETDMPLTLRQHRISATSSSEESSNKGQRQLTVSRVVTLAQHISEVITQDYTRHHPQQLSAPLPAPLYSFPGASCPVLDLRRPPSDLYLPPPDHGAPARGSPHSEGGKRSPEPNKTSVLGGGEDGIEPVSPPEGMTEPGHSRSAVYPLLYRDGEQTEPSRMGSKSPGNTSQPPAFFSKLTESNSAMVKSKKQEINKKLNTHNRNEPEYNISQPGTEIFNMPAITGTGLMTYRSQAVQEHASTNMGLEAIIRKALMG
In words: mammalian GAL4/VP16 two-hybrid, CV-1 cells, luciferase reporter. On the technique in general: In a reporter assay the amount or activity of a reporter protein is the signal.

As for `O=S(=O)(c1ccccc1)N(CC(F)(F)F)c1ccc(C(O)(C(F)(F)F)C(F)(F)F)cc1` [T0901317, N-(2,2,2,-trifluoro-ethyl)-N-[4-(2,2,2-trifluoro-1-hydroxy-1-trifluoromethyl-ethyl)-phenyl]-benzenesulfonamide], the “interaction of LXRα with co-repressors NCoR and SMRT” value in experiment [1] is given as “inhibited”. Moreover, the “expression of ABCA1 mRNA in mouse embryonic fibroblasts” value in the experiment on ABCA1 [2] is on record as “increases”. In addition, the “expression of ABCA1 mRNA in tissues” value in the experiment on ABCA1 [3] is “increases”. In addition, the “interaction of LXRβ with co-repressors NCoR and SMRT” value in experiment [4] is listed as “inhibited”. Besides, in the experiment with ABCA1 [5] (RT-PCR normalized to cyclophilin, LXR dependent (wild type vs LXRαβ-/-)), the “ABCA1 mRNA levels” value is given as “increases”. In the experiment with ABCA1 [5] (western blot, LXR dependent), the ABCA1 protein levels entry is “increases”.

B1: VP16-LXR-LBD (VP16 activation domain fused to the ligand binding domain of human LXRβ, amino acids 155-461) (receptor)
chain: SRGRTRNNYGSTIEGLLDLPDDDDAPAEAGLVAPRMSFLSAGQRPRRLSTTAPITDVSLVDELRLDGEEVDMTPADALDDFDLEMLGDVESPSPGMTHDPVSYGALDVDDFEFEQMFTDALGIDDFGGREQCVLSEEQIRKKKIRKQQQESQSQSQSPVGPQGSSSSASGPGASPGGSEAGSQGSGEGEGVQLTAAQELMIQQLVAAQLQCNKRSFSDQPKVTPWPLGADPQSRDARQQRFAHFTELAIISVQEIVDFAKQVPGFLQLGREDQIALLKASTIEIMLLETARRYNHETECITFLKDFTYSKDDFHRAGLQVEFINPIFEFSRAMRRLGLDDAEYALLIAINIFSADRPNVQEPGRVEALQQPYVEALLSYTRIKRPQDQLRFPRMLMKLVSLRTLSSVHSEQVFALRLQDKKLPPLLSEIWDVHE
notes: also called VP16 fusion of LXRβ; VP16-LXRβ-LBD
Regarding B1, the binding result in experiment [6] is given as “binds”.

B2: VP16-LXR-LBD (VP16 activation domain fused to the ligand binding domain of human LXRα, amino acids 164-447) (receptor)
chain: SRGRTRNNYGSTIEGLLDLPDDDDAPAEAGLVAPRMSFLSAGQRPRRLSTTAPITDVSLVDELRLDGEEVDMTPADALDDFDLEMLGDVESPSPGMTHDPVSYGALDVDDFEFEQMFTDALGIDDFGGREECVLSEEQIRLKKLKRQEEEQAHATSLPPRRSSPPQILPQLSPEQLGMIEKLVAAQQQCNRRSFSDRLRVTPWPMAPDPHSREARQQRFAHFTELAIVSVQEIVDFAKQLPGFLQLSREDQIALLKTSAIEVMLLETSRRYNPGSESITFLKDFSYNREDFAKAGLQVEFINPIFEFSRAMNELQLNDAEFALLIAISIFSADRPNVQDQLQVERLQHTYVEALHAYVSIHHPHDRLMFPRMLMKLVSLRTLSSVHSEQVFALRLQDKKLPPLLSEIWDVHE
notes: also called VP16 fusion of LXRα; VP16-LXRα-LBD
As to B2, the binding result in experiment [6] is given as “binds”.

The values are drawn from US20030228607A1, “Screening method and modulators having an improved therapeutic profile” (priority 2002, published 2003).
